Data from patent US20260085315A1, “POLYNUCLEOTIDE COMPOSITIONS AND METHODS FOR TREATMENT OF CANCER” (APTAH BIO, INC., priority 2023, published 2026).
d = 2'-deoxy (DNA); m = 2'-O-methyl

What was measured:
cAMP = assay: ELISA of tumor tissue homogenate; format: in vivo, U-87MG xenograft in animals; conditions: vs negative control; lower total expression
Description: (§1) For the assessment of biomarkers such as cAMP, AKT, GFAP, and TAU by ELISA, the U-87MG tumor tissues dissected out from the animals were homogenized according to kit instructions. The homogenates were centrifugated, and the supernatant was collected and immunoassayed with the Human AKT Protein ELISA Kit (MyByoSouce), cyclic AMP Complete Enzyme-linked Immunosorbent Assay (ELISA) kit (MyByoSouce), Human Glial Fibrillary Acidic Protein (GFAP) ELISA Kit (Cusabio), and Human TAU Protein (TAU) ELISA Kit (MyByoSouce) for the quantitative determination of cAMP, AKT, GFAP, and TAU proteins, respectively.
(§2) As shown in FIG. 37A-D, the graphs present the individual values of protein quantification of tumors from 6 animals. (A) cAMP, (B) […], (C) GFAP, and (D) TAU.

MCF-7 cell line [1] = assay: Mitochondrial membrane potential (MitoTracker Red); format: cell-based, Human; conditions: 0.25, 0.5, 1 μM; 24 hours; vs non-treated cells
Description: The evaluation of ASMO1 APT20TTMG effect on the mitochondrial membrane potential of MCF-7 cell line was performed using MitoTracker Red dye. MitoTracker Red is a cationic fluorophore that accumulates in the mitochondria matrix, providing an indication of the viability and integrity of that organelle.
For this, cells were cultured overnight in 24-well plates at a density of 1×10^5 cells/well, aiming cell adhesion. After that, cells were treated with three concentrations of APT20TTMG (0.25, 0.5, and 1 μM) for 24 hours. After treatment with the ASMO1, cells were collected using a 0.05% trypsin solution and washed twice with 2.0 mL of PBS buffer. Finally, samples were incubated with 500 μL of MitoTracker Red fluorescent dye solution at a concentration of 50 nM for 15 minutes in an incubator. Then the cells were again washed twice with 2 mL of PBS and, subsequently, analyzed in a flow cytometer (BD FACSCanto II, BD Biosciences) through the acquisition of 10.000 gated events/sample.

TAU = assay: ELISA of tumor tissue homogenate; format: in vivo, Human; conditions: after treatment
Description: as §1, §2

AKT = assay: ELISA of tumor tissue homogenate; format: in vivo, Human; conditions: in relation to the negative control
Description: as §1, §2

GFAP = assay: ELISA of tumor tissue homogenate; format: in vivo, Human; conditions: in relation to the non-treated control
Description: as §1, §2

MCF-7 cell line [2] = assay: Annexin V/propidium iodide apoptosis assay; format: cell-based, Human; conditions: 0.25, 0.5, 1 μM; 24 hours; vs non-treated cells
Description: The apoptosis-inducing potential of ASMO APT20TTMG was evaluated using the method of double labeling of cells with Annexin V and propidium iodide. Annexin V is a peptide that has a high affinity for phosphatidyl serine, a phospholipid distributed asymmetrically in the inner leaflet of the lipid bilayer of membrane plasma under physiological conditions. During the process of cell death by apoptosis, phospholipids asymmetric distribution is lost and phosphatidyl serine is translocated to the outer leaflet of the plasma membrane through a process of externalization. The measurement of the exposure of phosphatidylserine could be detected by Annexin V conjugated to fluorochromes. On the other hand, propidium iodide is a DNA intercalator that only can penetrate the interior of the cell in cases where the selective permeability of the plasma membrane is compromised, which clearly occurs during several processes of cell death.
Pro-apoptotic potential of APT20TTMG was evaluated in the MCF-7 cell line, using the Apoptosis Detection with Annexin V/Propidium Iodide kit (eBioScience). First, cells were cultured in 24-well plates at a density of 1×10^5 cells/well for 24 hours for adhesion. […] Finally, the samples were labeled with Propidium Iodide and analyzed in a flow cytometer (BD FACSCanto II, BD Biosciences) through the acquisition of 10.000 gated events/sample.

[3] = tested on: U87MG (Human Glioblastoma); assay: MTT viability assay 48/96/144 h (Example 5); format: cell-based; conditions: 0.003-30 μM tested
Description: In vitro effects of APT20TTMG on viability and proliferation of human cancer cell line U87MG (Human Glioblastoma) were also evaluated by MTT and BrdU assays, respectively. Cells were treated with APT20TTMG and Reference Items in technical triplicates (Experiment was done in 3 different sets) at various concentrations for 48 h, 96 h, and 144 h. APT20TTMG and Reference Items were read after every 48 h.
As shown in FIGS. 32-33, A MTT assay (FIG. 32) was also performed with another five different concentrations of APT20TTMG (0.003, 0.03, 0.3, 3, and 30 μM) and at 48, 96, and 144 hours of incubation. […] Finally, to confirm whether APT20TTMG is a cytotoxic or cytostatic molecule considering its ability to reduce cellular viability in certain concentrations, a cell proliferation assay (FIG. 33) with the U87-MG cell line was also performed in the same conditions as the MTT assay. […] Cells were plated and treated with 5 different concentrations (0.003, 0.03, 0.3, 3, and 30 μM). BrdU assay was performed after 48, 96, or 144 hours of incubation. Data are plotted as a percentage (%) of cell viability compared to the negative control group (vehicle). Results are expressed as Mean±SEM of three independent experiments performed in three technical replicates. […]

## APT20TTMG: engineered polynucleotide ASMO1, 24 nt, SEQ ID NO: 3 gtccactaacctttcaggccagcg; targeting moieties 5′-GTCCA-3′ and 5′-CG-3′, U1 snRNP recruiting moiety (GTCCACTAACCTTTCAGGCCAGCG; sugars from the 5' end m5 d14 m5, all phosphorothioate, methylation of C and T or U not given here)
cAMP
  cAMP in tumor tissue (ELISA): no statistical difference was observed
MCF-7 cell line [1]
  mitochondrial membrane potential: no change in mitochondrial membrane potential
TAU
  TAU expression in tumor tissue (ELISA): significant reduction in TAU expression
AKT
  AKT expression in tumor tissue (ELISA): reduces the expression of ART protein
GFAP
  GFAP in tumor tissue (ELISA): reduction of this biomarker
MCF-7 cell line [2]
  proportion of viable cells, recent/late apoptosis or necrosis: no change in any of the evaluated parameters
[3]; 96 and 144 hours
  concentrations observed to reduce cell viability (MTT): ≥ 0.3 µM
[3]; 48 hours
  concentration observed to reduce cell viability (MTT): 30 µM
